“And” between values parts separate entries of the source, which are not always exact repeats. Equal entries are not always repeated.
Tests used:
[1] = test system: blood pressure of SHR rat; experiment: Reduction of blood pressure of anesthetized SHR rat; type: in vivo, spontaneously hypertensive rat (SHR); settings: for Diastolic pressure / Systolic pressure: 10 mg/kg intravenous
Procedure: (§1) A spontaneously hypertensive rat (SHR) was anesthetized with 40 mg/ml pentobarbital, and fixed by its back on an experimental stand. The skin at its neck was cut open after removing hair, and thereafter the right common carotid artery was separated with its proximal end being clamped by a artery clamp and its axifugal end being ligated by a thread. A V-shape cut was made with scissors at the axifugal end, into which an arterial cannula filled with heparin physiological saline was inserted. The arterial cannula was connected with a blood pressure transducer, and then the blood pressure transducer was connected to a computer-controlled three-way physiological-pharmacological recorder. The right femoral vein of the rat was separated and intubated for the injection of a drug. When the blood pressure became stable (i.e., the blood pressure contraction curve became straight), the rat was administered by intravenous route.

blood pressure of cats = experiment: Reduction of blood pressure of cat; type: in vivo; settings: for Average Diastolic pressure / Average Systolic pressure / Diastolic pressure, Animal 1-4 individually / Systolic pressure, Animal 1-4 individually: cats, 5 mg/kg iv; for Diastolic pressure, Animal 1-4 individually / Systolic pressure, Animal 1-4 individually: 5 mg/kg
Procedure: as §1
Five cats of 2.5-3.2 kg were administered orally and intravenously respectively according to the method in Example 8, and then their systolic pressure and diastolic pressure were determined using normal cats non-administered as a control group.

[2] = SHR rat, 5 min after administration
[3] = SHR rat, 60 min after administration
[4] = SHR rat, 120 min after administration
[5] = SHR rat, 240 min after administration

`CC1(C)CNCC(C)(C)C1=O` [Compound of formula II, 3,3,5,5-tetramethyl-4-piperidone] was tested, and the “effect of reducing blood pressure” value ([1]; 5-20 mg/kg, model of anesthetic rat) was “very obvious effect of reducing blood pressure”, the Diastolic pressure [1, 2] was 105 ± 11 mm/Hg and the Systolic pressure [1, 2] was 141 ± 9.2 mm/Hg. For the same compound, the Diastolic pressure [1, 3] was 84 ± 11 mm/Hg, the Systolic pressure [1, 3] was 120 ± 12 mm/Hg and the Diastolic pressure [1, 4] was 83 ± 21 mm/Hg. It also gave a Systolic pressure [1, 4] of 125 ± 14 mm/Hg, a Diastolic pressure [1, 5] of 110 ± 18 mm/Hg and a Systolic pressure [1, 5] of 163 ± 12 mm/Hg. The Diastolic pressure ([1]; SHR rat, before administration) was 124 ± 12 mm/Hg, the Systolic pressure ([1]; SHR rat, before administration) was 174 ± 11 mm/Hg and the “reduction of systolic pressure and diastolic pressure” value ([1]; SHR rat, dosage range 10-200 mg/kg, intravenous) was “could obviously reduce the systolic pressure and diastolic pressure of SHR rat”. For the same compound, the “effect of reducing blood pressure” value (blood pressure of cats; 5-20 mg/kg, model of anesthetic cat) was “very obvious effect of reducing blood pressure”, the “Average Diastolic pressure” value (blood pressure of cats; 10 min after administration) was 106 mmHg and the “Average Systolic pressure” value (blood pressure of cats; 10 min after administration) was 135.5 mmHg. For the same compound, the “Diastolic pressure, Animal 1-4 individually” value (blood pressure of cats; 10 min after administration) was 84 mmHg and 93 mmHg and 146 mmHg and 101 mmHg, the “Systolic pressure, Animal 1-4 individually” value (blood pressure of cats; 10 min after administration) was 100 mmHg and 110 mmHg and 182 mmHg and 150 mmHg and the “Average Diastolic pressure” value (blood pressure of cats; 20 min after administration) was 105.75 mmHg. The “Average Systolic pressure” value (blood pressure of cats; 20 min after administration) was 139.75 mmHg, the “Diastolic pressure, Animal 1-4 individually” value (blood pressure of cats; 20 min after administration) was 79 mmHg and 109 mmHg and 137 mmHg and 98 mmHg and the “Systolic pressure, Animal 1-4 individually” value (blood pressure of cats; 20 min after administration) was 111 mmHg and 126 mmHg and 172 mmHg and 150 mmHg. For the same compound, the “Average Diastolic pressure” value (blood pressure of cats; 30 min after administration) was 106.25 mmHg, the “Average Systolic pressure” value (blood pressure of cats; 30 min after administration) was 141.25 mmHg and the “Diastolic pressure, Animal 1-4 individually” value (blood pressure of cats; 30 min after administration) was 80 mmHg and 111 mmHg and 136 mmHg and 98 mmHg. The “Systolic pressure, Animal 1-4 individually” value (blood pressure of cats; 30 min after administration) was 119 mmHg and 137 mmHg and 173 mmHg and 136 mmHg, the “Average Diastolic pressure” value (blood pressure of cats; 40 min after administration) was 110.5 mmHg and the “Average Systolic pressure” value (blood pressure of cats; 40 min after administration) was 144.5 mmHg. For the same compound, the “Diastolic pressure, Animal 1-4 individually” value (blood pressure of cats; 40 min after administration) was 100 mmHg and 111 mmHg and 134 mmHg and 97 mmHg, the “Systolic pressure, Animal 1-4 individually” value (blood pressure of cats; 40 min after administration) was 134 mmHg and 137 mmHg and 172 mmHg and 135 mmHg and the “Average Diastolic pressure” value (blood pressure of cats; 50 min after administration) was 117 mmHg. For the same compound, the “Average Systolic pressure” value (blood pressure of cats; 50 min after administration) was 152.25 mmHg, the “Diastolic pressure, Animal 1-4 individually” value (blood pressure of cats; 50 min after administration) was 117 mmHg and 120 mmHg and 134 mmHg and 97 mmHg and the “Systolic pressure, Animal 1-4 individually” value (blood pressure of cats; 50 min after administration) was 156 mmHg and 147 mmHg and 171 mmHg and 135 mmHg. The “Average Diastolic pressure” value (blood pressure of cats; 60 min after administration) was 118.25 mmHg, the “Average Systolic pressure” value (blood pressure of cats; 60 min after administration) was 158 mmHg and the “Diastolic pressure, Animal 1-4 individually” value (blood pressure of cats; 60 min after administration) was 131 mmHg and 120 mmHg and 130 mmHg and 92 mmHg. The “Systolic pressure, Animal 1-4 individually” value (blood pressure of cats; 60 min after administration) was 174 mmHg (2×) and 142 mmHg (2×), the “Average Diastolic pressure” value (blood pressure of cats; 90 min after administration) was 121.75 mmHg and the “Average Systolic pressure” value (blood pressure of cats; 90 min after administration) was 164.5 mmHg. The “Diastolic pressure, Animal 1-4 individually” value (blood pressure of cats; 90 min after administration) was 122 mmHg and 129 mmHg and 144 mmHg and 92 mmHg, the “Systolic pressure, Animal 1-4 individually” value (blood pressure of cats; 90 min after administration) was 170 mmHg and 167 mmHg and 178 mmHg and 143 mmHg and the “Average Diastolic pressure” value (blood pressure of cats; 120 min after administration) was 124 mmHg. The “Average Systolic pressure” value (blood pressure of cats; 120 min after administration) was 174.5 mmHg, the “Diastolic pressure, Animal 1-4 individually” value (blood pressure of cats; 120 min after administration) was 123 mmHg and 129 mmHg and 148 mmHg and 96 mmHg and the “Systolic pressure, Animal 1-4 individually” value (blood pressure of cats; 120 min after administration) was 182 mmHg and 167 mmHg and 202 mmHg and 147 mmHg. For the same compound, the “Average Diastolic pressure” value (blood pressure of cats; 150 min after administration) was 127.5 mmHg, the “Average Systolic pressure” value (blood pressure of cats; 150 min after administration) was 177 mmHg and the “Diastolic pressure, Animal 1-4 individually” value (blood pressure of cats; 150 min after administration) was 124 mmHg and 140 mmHg and 148 mmHg and 98 mmHg. The “Systolic pressure, Animal 1-4 individually” value (blood pressure of cats; 150 min after administration) was 186 mmHg and 170 mmHg and 202 mmHg and 150 mmHg, the “Average Diastolic pressure” value (blood pressure of cats; 180 min after administration) was 133.75 mmHg and the “Average Systolic pressure” value (blood pressure of cats; 180 min after administration) was 185 mmHg. The “Diastolic pressure, Animal 1-4 individually” value (blood pressure of cats; 180 min after administration) was 123 mmHg and 148 mmHg and 156 mmHg and 108 mmHg, the “Systolic pressure, Animal 1-4 individually” value (blood pressure of cats; 180 min after administration) was 187 mmHg and 176 mmHg and 212 mmHg and 165 mmHg and the “Average Diastolic pressure” value (blood pressure of cats; before administration) was 146.25 mmHg. For the same compound, the “Average Systolic pressure” value (blood pressure of cats; before administration) was 199.5 mmHg, the “Diastolic pressure, Animal 1-4 individually” value (blood pressure of cats; before administration) was 169 mmHg and 138 mmHg and 163 mmHg and 115 mmHg and the “Systolic pressure, Animal 1-4 individually” value (blood pressure of cats; before administration) was 226 mmHg and 183 mmHg and 211 mmHg and 178 mmHg.
